Here are results for 30 compounds from patent US5705524A, “Thiepane compounds” (Gilead Sciences, Inc., priority 1995, dated 1998).

Each structure is given as a SMILES string. Like-named read-outs stand apart in the source and are kept apart here. Bounds are passed on as bounds.

For experiment [1], the target named is T1, HIV protease (Human immunodeficiency virus type 1 group M subtype B, UniProt P04585).
T1 construct: measurement of HIV-protease (HIV-PR) activity
The experiment in a line: biochemical. How it is done: Compositions to be subjected to enzyme assay are lyophilited and diluted in DMSO to 100-1000 μM. Compositions having apparent IC50 <1 μm are diluted to 100 μM.
The assay is a fluorometric method for measurement of HIV-protease (HIV-PR) activity utilizing a synthetic peptide substrate for HIV-PR based on that described by Matayoshi, E. D.; Wang, G. T.; Krafft, G. A.; and Erickson, J. W.; Science, 1990, 247, 954-958; and Wang, G. T.; Huffker, J. A.; Matayoshi, E.; and Krafft, G. A.; Tetrahedron Lett., 1990, 165, 6493-6496.
1.0 mM ethylenediaminetetraacetic acid (EDTA)
1.0 mM dithiothreitol (DTT)
10% dimethyl sulfoxide (DMSO)
1 mg/mL bovine serum albumin (BSA) adjusted to pH 4.7
1. Prepare a solution of 2 μM HIV Protease Substrate 1 in the Assay Buffer.
2. Dispense the substrate solution into UV-pass fluorescence cuvettes (1 cm pathlength).
3. Set the excitation and emission monochromators of the spectrofluorimeter to 340 nm and 490 nm, respectively. To obtain the same kinetic constants as reported, cuvettes should be held at 37° C. throughout the assay.
4. Begin each assay by adding a small amount (<3% of the final volume) of HIV-PR-containing solution diluted tin the Assay Buffer.
5. Measure the initial rate of cleavage of fluorogenic substrate by monitoring the increase in fluorescence signal at 490 nm for 5-8 min at 37° C.
(§1) The apparent IC50 and IC50 values reported below in Table 25 were determined using the assays of Example 34 and 35, respectively. The values are indicated as follows: +=10-50 μM, ++2-10 μM, and +++<2 μM.

Experiment [2] deals with HIV IIIB. The experiment in a line: XTT Cell Culture Assay, cells infected with HIV IIIB (Example 35). The format is cell-based. The following applies: read-out: Cell Culture IC50. How it is done:
The method of Weislow, O. S.; Kiser, R.; Fine, D. L.; Bader, J.; Shoemaker, R. H.; and Boyd, M. R.; J. Nat. Cancer Institute, 1989, 81(8) 577-586 was applied with the following minor modifications: Infection of cells with HIV IIIB was performed without polybrene. Cells were distributed to Microtiter wells containing the compound of the invention 4 h after infection with HIV IIIB. 2×XTT was added at 5-6 days post infection. 20 μl 2% Triton X-100 was added 1 hour after XTT addition.
1. Add 4 ml of XTT (5 mg/ml) to 8 ml of Deficient RPMI medium (no phenol red, no serum). Mix briefly at 45° C. to dissolve XTT.
2. Add 800 μl of PMS (0.2 mg/ml) to XTT/RPMI mixture.
3. Remove 100 μl of cell free media from each well of a 96 well plate and replace with 100 μl of the XTT/PMS mixture.
4. Incubate at 37° C. for 1.5-2 h.
5. Read absorbance at 450 nm. Absorbance values are directly proportional to cell viability.
as §1
On the technique in general: Tetrazolium assays rely on reduction of a dye to a coloured formazan, in cell work by metabolically active cells.

Where [3] appears, read: fluorogenic peptide substrate, 37° C., pH 4.7, read-out: Apparent Enzyme IC50.
Setting [4] is: Human immunodeficiency virus 1, IIIB, HIV IIIB infected cells, XTT at 5-6 days post infection.
Where [5] appears, read: HIV IIIB infected cells, XTT at 5-6 days post infection.
[6] abbreviates: Apparent Enzyme IC50, fluorogenic peptide substrate, 37° C., pH 4.7.
[7] abbreviates: Human immunodeficiency virus 1, IIIB.

Turning to `O[C@@H]1[C@@H](O)[C@@H](OCc2ccccc2)CS[C@H](Cc2ccccc2)[C@@H]1OCc1ccccc1` [107/2], the IC50 in experiment [1] (setting [3]) is 10 to 50 µM.

Consider `[O-][S@+]1C[C@H](OCc2ccccc2)[C@H](O)[C@@H](O)[C@@H](OCc2ccccc2)[C@H]1Cc1ccccc1` [107/3], for which, in experiment [1] (setting [3]), the IC50 is 2 to 10 µM.

In the case of `[O-][S@@+]1C[C@H](OCc2ccccc2)[C@H](O)[C@@H](O)[C@@H](OCc2ccccc2)[C@H]1Cc1ccccc1` [107/4], the IC50 lay within 2 to 10 µM in experiment [1] (setting [3]) and 10 to 50 µM in experiment [2] (setting [4]).

For the compound `O=S1(=O)C[C@H](OCc2ccccc2)[C@H](O)[C@@H](O)[C@@H](OCc2ccccc2)[C@H]1Cc1ccccc1` [107/5], the figures for the half-maximal inhibitory concentration (IC50) in experiment [1] (setting [3]) and in experiment [2] (setting [4]) were less than 2 µM and 10 to 50 µM, respectively.

Turning to `N#Cc1ccccc1O[C@@H]1[C@H](O)[C@@H](O)[C@@H](Oc2ccccc2C#N)CS(=O)(=O)[C@@H]1Cc1ccccc1` [107/10], the 50% inhibitory concentration (IC50) in experiment [1] (setting [3]) was 2 to 10 µM.

For `N#Cc1ccc(O[C@@H]2[C@H](O)[C@@H](O)[C@@H](Oc3ccc(C#N)cc3)CS[C@@H]2Cc2ccccc2)cc1` [107/12], in experiment [1] (setting [3]), the IC50 fell in the range of 2 to 10 µM.

In the case of `N#Cc1ccc(O[C@@H]2[C@H](O)[C@@H](O)[C@@H](Oc3ccc(C#N)cc3)CS(=O)(=O)[C@@H]2Cc2ccccc2)cc1` [107/15], the IC50 in experiment [1] (setting [3]) lay in the range of 2 to 10 µM.

As to `[O-][S+]1[C@H](Cc2ccccc2)[C@H](OCc2ccccc2)[C@H](O)[C@@H](O)[C@@H](OCc2ccccc2)[C@H]1Cc1ccccc1` (stereo partly shown) [108/4], the half-maximal inhibitory concentration (IC50) in experiment [1] (setting [3]) and in experiment [2] (setting [5]) was less than 2 µM each time.

As to `O=S1(=O)[C@H](Cc2ccccc2)[C@H](OCc2ccccc2)[C@H](O)[C@@H](O)[C@@H](OCc2ccccc2)[C@H]1Cc1ccccc1` [108/5], the half-maximal inhibitory concentration (IC50) in experiment [2] (setting [4]) is less than 2 µM.

Consider `[O-][S@@+]1[C@H](Cc2ccccc2)[C@H](OCc2ccccc2)[C@H](O)[C@@H](O)[C@@H](OCc2ccccc2)[C@@H]1Cc1ccccc1` [108/17], for which the IC50 in experiment [1] (setting [3]) and in experiment [2] (setting [4]) was 2 to 10 µM in each case.

`O=S1(=O)[C@H](Cc2ccccc2)[C@H](OCc2ccccc2)[C@H](O)[C@@H](O)[C@@H](OCc2ccccc2)[C@@H]1Cc1ccccc1` [108/18]: the results for the concentration for half-maximal inhibition (IC50) in experiment [1] (setting [3]) and in experiment [2] (setting [4]) were less than 2 µM and 10 to 50 µM, respectively.

As to `O=S1(=O)[C@H](Cc2ccccc2)[C@H](OCc2ccccc2)[C@H](O)[C@@H](O)[C@H](OCc2ccccc2)[C@H]1Cc1ccccc1` [108/21], the half-maximal inhibitory concentration (IC50) in experiment [1] (setting [3]) and in experiment [2] (setting [4]) was less than 2 µM throughout.

In the case of `O=S1(=O)[C@@H](Cc2ccccc2)[C@@H](OCc2ccccc2)[C@@H](O)[C@H](O)[C@H](OCc2ccccc2)[C@@H]1Cc1ccccc1` [108/27], the IC50 in experiment [1] (setting [3]) and in experiment [2] (setting [4]) was 10 to 50 µM throughout.

Turning to `[O-][S+]1[C@H](Cc2ccccc2)[C@H](OCc2ccccc2)[C@H](O)[C@@H](O)[C@@H](OCc2ccccc2)[C@H]1Cc1ccccc1` (stereo partly shown) [120/3], the concentration for half-maximal inhibition (IC50) in experiment [1] (setting [3]) is less than 2 µM; in experiment [2] (setting [5]), 10 to 50 µM.

Turning to `CC1(C)O[C@@H]2[C@@H](O1)[C@@H](OCc1ccccn1)[C@@H](Cc1ccccc1)S(=O)(=O)[C@H](Cc1ccccc1)[C@@H]2OCc1ccccn1` [120/6], the concentration for half-maximal inhibition (IC50) in experiment [1] (setting [3]) was less than 2 µM; in experiment [2] (setting [4]), 2 to 10 µM.

Regarding `CC1(C)O[C@@H]2[C@@H](O1)[C@@H](OCc1cccc[n+]1[O-])[C@@H](Cc1ccccc1)S(=O)(=O)[C@H](Cc1ccccc1)[C@@H]2OCc1ccccn1` [120/7], the IC50 in experiment [1] (setting [3]) is less than 2 µM; in experiment [2] (setting [4]), 2 to 10 µM.

`O=S1(=O)[C@H](Cc2ccccc2)[C@H](OCc2cccnc2)[C@H](O)[C@@H](O)[C@@H](OCc2cccnc2)[C@H]1Cc1ccccc1` [120/15]: the IC50 in experiment [1] (setting [3]) and in experiment [2] (setting [4]) was less than 2 µM throughout.

`O=S1(=O)[C@H](Cc2ccccc2)[C@H](OCc2cccnc2)[C@H](O)[C@@H](O)[C@@H](OCc2ccc[n+]([O-])c2)[C@H]1Cc1ccccc1` [120/16]: the IC50 in experiment [1] (setting [3]) and in experiment [2] (setting [4]) was less than 2 µM in each case.

As for `O=S1(=O)[C@H](Cc2ccccc2)[C@H](OCc2ccncc2)[C@H](O)[C@@H](O)[C@@H](OCc2ccncc2)[C@H]1Cc1ccccc1` [120/19], the IC50 in experiment [1] (setting [3]) is less than 2 µM.

For `Cc1nc(CO[C@@H]2[C@H](O)[C@@H](O)[C@@H](OCc3csc(C)n3)[C@@H](Cc3ccccc3)S(=O)(=O)[C@@H]2Cc2ccccc2)cs1` [120/22], the IC50 in experiment [1] (setting [3]) is less than 2 µM; in experiment [2] (setting [4]), 10 to 50 µM.

On to `O=S1(=O)[C@H](Cc2ccccc2)[C@H](OCc2cncs2)[C@H](O)[C@@H](O)[C@@H](OCc2cncs2)[C@H]1Cc1ccccc1` [120/25], for which the concentration for half-maximal inhibition (IC50) in experiment [1] (read-out: Apparent Enzyme IC50) and in experiment [2] (setting [4]) was less than 2 µM in each case.

With `O=S1(=O)[C@H](Cc2ccccc2)[C@H](Oc2ccccn2)[C@H](O)[C@@H](O)[C@@H](Oc2ccccn2)[C@H]1Cc1ccccc1` [120/28], the IC50 in experiment [1] (setting [3]) was less than 2 µM.

As for `Cc1cccc(CO[C@@H]2[C@H](O)[C@@H](O)[C@@H](OCc3cccc(C)c3)[C@@H](Cc3ccccc3)S(=O)(=O)[C@@H]2Cc2ccccc2)c1` [120/31], the IC50 in experiment [1] (setting [3]) and in experiment [2] (setting [4]) was less than 2 µM throughout.

With `COc1cccc(CO[C@@H]2[C@H](O)[C@@H](O)[C@@H](OCc3cccc(OC)c3)[C@@H](Cc3ccccc3)S(=O)(=O)[C@@H]2Cc2ccccc2)c1` [120/34], the IC50 in experiment [1] (setting [3]) and in experiment [2] (setting [4]) was less than 2 µM each time.

Take `O=S1(=O)[C@H](Cc2ccccc2)[C@H](OCc2cccc(Br)c2)[C@H](O)[C@@H](O)[C@@H](OCc2cccc(Br)c2)[C@H]1Cc1ccccc1` [120/37]: the half-inhibitory concentration (IC50) in experiment [1] (setting [3]) is less than 2 µM.

On to `O=S1(=O)[C@H](Cc2ccccc2)[C@H](OCc2cccc(OCc3ccccc3)c2)[C@H](O)[C@@H](O)[C@@H](OCc2cccc(OCc3ccccc3)c2)[C@H]1Cc1ccccc1` [120/40], for which, in experiment [1] (setting [3]), the IC50 was less than 2 µM.

With `O=S1(=O)[C@H](Cc2ccccc2)[C@H](OCc2cccc(O)c2)[C@H](O)[C@@H](O)[C@@H](OCc2cccc(O)c2)[C@H]1Cc1ccccc1` [120/41], the 50% inhibitory concentration (IC50) in experiment [1] (setting [3]) is less than 2 µM.

`O=[N+]([O-])c1cccc(CO[C@@H]2[C@H](O)[C@@H](O)[C@@H](OCc3cccc([N+](=O)[O-])c3)[C@@H](Cc3ccccc3)[S+]([O-])[C@@H]2Cc2ccccc2)c1` (stereo partly shown) [120/44]: the half-inhibitory concentration (IC50) in experiment [1] (setting [6]) and in experiment [2] (setting [7]) was less than 2 µM throughout.

In the case of `O=[N+]([O-])c1cccc(CO[C@@H]2[C@H](O)[C@@H](O)[C@@H](OCc3cccc([N+](=O)[O-])c3)[C@@H](Cc3ccccc3)S(=O)(=O)[C@@H]2Cc2ccccc2)c1` [120/45], the IC50 in experiment [1] (setting [6]) and in experiment [2] (setting [7]) was less than 2 µM each time.

Take `Nc1cccc(CO[C@@H]2[C@H](O)[C@@H](O)[C@@H](OCc3cccc(N)c3)[C@@H](Cc3ccccc3)S(=O)(=O)[C@@H]2Cc2ccccc2)c1` [120/46]: the half-maximal inhibitory concentration (IC50) in experiment [1] (setting [3]) and in experiment [2] (setting [4]) was less than 2 µM in each case.

In general, IC50 refers to the concentration that inhibits the measured activity by half.
